The nature of data set [1]: Stability in liver microsomes, human. Particulars: for AUC: human. In general terms: Microsomes from liver hold many membrane-bound enzymes, among them those of drug oxidation.
Data set [2] in a line: Stability in liver microsomes, rat.
Data set [3] in a line: Stability in liver microsomes, dog.
Data set [4] in a line: Stability in human subcutaneous skin homogenate. Particulars: for AUC: human.
For data set [5] the following is noted: rat.
The conditions of data set [6]: dog.

A word on the AUC: it is the area under the concentration-time curve, a measure of exposure. A high value points to high exposure.

SMILES strings stand for the structures. Read-outs that look alike come from different tables or passages of the source.

With `CCCCCC(CCC1C(O)CC2Cc3c(cccc3OCC(=O)O)CC21)OCOC(=O)C(C)(C)C` (stereo not shown) [LII], in data set [1], the “Trep Concentration 0 min” value came out at 0.948 µM, the “Trep Concentration 10 min” value worked out at 0.798 µM, the “Trep Concentration 20 min” value came out at 0.679 µM and the “Trep Concentration 30 min” value came to 0.538 µM. In data set [1], the “Trep Concentration 60 min” value turned out to be 0.346 µM and the exposure (AUC) came to 35.46 µmol·min/L. Moreover, in data set [2], the “Trep Concentration 0 min” value stood at 0.937 µM, the “Trep Concentration 10 min” value amounted to 0.938 µM, the “Trep Concentration 20 min” value is 0.892 µM and the “Trep Concentration 30 min” value turned out to be 0.838 µM. The “Trep Concentration 60 min” value in data set [2] is 0.802 µM. Further, in data set [3], the “Trep Concentration 0 min” value was found to be 0.758 µM, the “Trep Concentration 10 min” value is 0.885 µM, the “Trep Concentration 20 min” value was 0.868 µM and the “Trep Concentration 30 min” value was 0.834 µM. Further, the “Trep Concentration 60 min” value in data set [3] was found to be 0.84 µM. Also, in data set [4], the “Trep Concentration 0 min” value worked out at 0.0201 µM, the “Trep Concentration 30 min” value was found to be 1.05 µM, the “Trep Concentration 60 min” value was 1.22 µM and the “Trep Concentration 120 min” value is 1.3 µM. In addition, the AUC in data set [4] amounted to 125.70 µmol·min/L. In addition, the AUC in data set [5] stood at 51.78 µmol·min/L. The compound further gave an area under the curve (AUC) in data set [6] of 50.60 µmol·min/L.

Take `CCCCCC(CCC1C(O)CC2Cc3c(cccc3OCC(=O)O)CC21)OC(=O)CN` (stereo not shown) [XXX]: in data set [1], the “Trep Concentration 0 min” value worked out at 0.036 µM, the “Trep Concentration 10 min” value was 0.132 µM, the “Trep Concentration 20 min” value was 0.227 µM and the “Trep Concentration 30 min” value is 0.31 µM. In data set [1], the “Trep Concentration 60 min” value amounted to 0.429 µM and the AUC is 16.41 µmol·min/L. In data set [2], the “Trep Concentration 0 min” value is 0.011 µM, the “Trep Concentration 10 min” value was found to be 0.0524 µM, the “Trep Concentration 20 min” value is 0.0901 µM and the “Trep Concentration 30 min” value stood at 0.122 µM. The “Trep Concentration 60 min” value in data set [2] was 0.196 µM. In addition, in data set [3], the “Trep Concentration 0 min” value stood at 0.0977 µM, the “Trep Concentration 10 min” value amounted to 0.347 µM, the “Trep Concentration 20 min” value was determined as 0.495 µM and the “Trep Concentration 30 min” value was 0.562 µM. Moreover, in data set [3], the “Trep Concentration 60 min” value stood at 0.664 µM. In data set [4], the “Trep Concentration 0 min” value is 0 µM, the “Trep Concentration 30 min” value amounted to 0.206 µM, the “Trep Concentration 60 min” value is 0.369 µM and the “Trep Concentration 120 min” value was found to be 0.533 µM. In addition, in data set [4], the AUC worked out at 38.78 µmol·min/L. Also, the exposure (AUC) in data set [5] was 6.86 µmol·min/L. In data set [6], this compound registered an AUC of 30.11 µmol·min/L.

Take `CCCCCC(CCC1C(O)CC2Cc3c(cccc3OCC(=O)O)CC21)OC(=O)C(C)N` (stereo not shown) [XXXI]: in data set [1], the “Trep Concentration 0 min” value was determined as 0.0531 µM, the “Trep Concentration 10 min” value came out at 0.193 µM, the “Trep Concentration 20 min” value came out at 0.31 µM and the “Trep Concentration 30 min” value turned out to be 0.327 µM. Moreover, in data set [1], the “Trep Concentration 60 min” value came out at 0.383 µM and the AUC amounted to 17.58 µmol·min/L. For the same compound, in data set [2], the “Trep Concentration 0 min” value is 0.00504 µM, the “Trep Concentration 10 min” value amounted to 0.0179 µM, the “Trep Concentration 20 min” value is 0.0351 µM and the “Trep Concentration 30 min” value was 0.0465 µM. Moreover, the “Trep Concentration 60 min” value in data set [2] was 0.107 µM. In addition, in data set [3], the “Trep Concentration 0 min” value stood at 0.134 µM, the “Trep Concentration 10 min” value came out at 0.479 µM, the “Trep Concentration 20 min” value was determined as 0.63 µM and the “Trep Concentration 30 min” value is 0.674 µM. Also, in data set [3], the “Trep Concentration 60 min” value worked out at 0.694 µM. Also, in data set [4], the “Trep Concentration 0 min” value came out at 0 µM, the “Trep Concentration 60 min” value was found to be 0.204 µM, the “Trep Concentration 120 min” value came out at 0.323 µM and the AUC is 22.23 µmol·min/L. Also, the AUC in data set [5] amounted to 3.09 µmol·min/L. Also, the area under the curve (AUC) in data set [6] came to 35.65 µmol·min/L.

Consider `CCCCCC(O)CCC1C(OC)CC2Cc3c(cccc3OCC(=O)O)CC21` (stereo not shown) [LIII], for which, in data set [1], the “Trep Concentration 0 min” value worked out at 0.0216 µM, the “Trep Concentration 10 min” value was 0.0336 µM, the “Trep Concentration 20 min” value is 0.0343 µM and the “Trep Concentration 30 min” value was determined as 0.0459 µM. In addition, in data set [1], the “Trep Concentration 60 min” value stood at 0.0354 µM and the AUC amounted to 2.24 µmol·min/L. In data set [2], the “Trep Concentration 0 min” value was 0.0196 µM, the “Trep Concentration 10 min” value is 0.0177 µM, the “Trep Concentration 20 min” value came to 0.024 µM and the “Trep Concentration 30 min” value turned out to be 0.0274 µM. Also, the “Trep Concentration 60 min” value in data set [2] was determined as 0.0271 µM. Further, in data set [3], the “Trep Concentration 0 min” value was 0.0189 µM, the “Trep Concentration 10 min” value stood at 0.0224 µM, the “Trep Concentration 20 min” value amounted to 0.0209 µM and the “Trep Concentration 60 min” value turned out to be 0.0222 µM. Further, in data set [4], the “Trep Concentration 0 min” value was 0.0159 µM, the “Trep Concentration 30 min” value came out at 0.0165 µM, the “Trep Concentration 60 min” value amounted to 0.0165 µM and the exposure (AUC) worked out at 1.99 µmol·min/L. In data set [5], this compound came in with an area under the curve (AUC) of 1.47 µmol·min/L. Further, the AUC in data set [6] was determined as 1.33 µmol·min/L.

On to `CCCCCC(O)CCC1C(OC(=O)CCC(=O)O)CC2Cc3c(cccc3OCC(=O)O)CC21` (stereo not shown) [XXII], for which, in data set [1], the “Trep Concentration 0 min” value was determined as 0 µM, the “Trep Concentration 10 min” value was 0 µM, the “Trep Concentration 20 min” value amounted to 0 µM and the “Trep Concentration 30 min” value was found to be 0 µM. In data set [1], the “Trep Concentration 60 min” value came to 0 µM and the AUC was determined as 0.00 µmol·min/L. In addition, in data set [2], the “Trep Concentration 0 min” value came to 0 µM, the “Trep Concentration 10 min” value worked out at 0 µM, the “Trep Concentration 20 min” value stood at 0 µM and the “Trep Concentration 30 min” value amounted to 0 µM. Further, the “Trep Concentration 60 min” value in data set [2] amounted to 0.016 µM. Further, in data set [3], the “Trep Concentration 0 min” value was 0 µM, the “Trep Concentration 10 min” value amounted to 0 µM, the “Trep Concentration 20 min” value came to 0 µM and the “Trep Concentration 30 min” value was 0 µM. In data set [3], the “Trep Concentration 60 min” value is 0 µM. Also, in data set [4], the “Trep Concentration 0 min” value was 0 µM, the “Trep Concentration 30 min” value was 0 µM, the “Trep Concentration 60 min” value came out at 0 µM and the “Trep Concentration 120 min” value was found to be 0 µM. In data set [4], this compound yielded an AUC of 0.00 µmol·min/L. Further, the AUC in data set [5] was determined as 0.24 µmol·min/L. This compound also displayed an AUC in data set [6] of 0.00 µmol·min/L.

The values are drawn from US12491170B2, “Stable treprostinil prodrugs” (United Therapeutics Corporation, priority 2020, dated 2025).
